Assay results taken from patent US20190038602A1, “GRANZYME B INHIBITOR FORMULATIONS AND METHODS FOR THE TREATMENT OF BURNS” (viDA Therapeutics, Inc., priority 2016, published 2019).
Where “and” joins values, the source holds several entries; their conditions need not be identical. Equal values may be shown once.

Columns and labels:
[1] = system: burn wound; test: Burn wound healing in mice (deep partial thickness thermal injury, degree IIb); type: in vivo
Method: In the studies described herein, all mice were initially anesthetized using mixture of isoflurane/oxygen (Iso about 2-2.5%/oxygen flow rate of about 1.5-2 L/min) in an induction chamber, then moved to a Baines system with a 1-2.5%/1.5-2 L/min flow rate. During anesthesia the mice were placed on a warming pad with a nose cone over the mice to maintain the anesthetic state. The toe nails were trimmed with clippers. A metal rod (25 g, 1 cm in diameter) was heated to 95-100° C. by submersion in boiling water for 3-5 min. The rod was immediately positioned vertically for 6 seconds without additional pressure on the dorsal skin of mice that had also been depilated 3 days before wounding. This procedure induces a deep partial thickness thermal injury (degree IIb). The severity of the thermal injury is classified according to Exp Dermatol. 2010; 19(9):777-783.

[2] = Compound A concentration at saturation in penetration enhancer vehicles (UPLC); type: physicochemical
Method: Compound A was dissolved at saturation in various vehicles containing PE in pH 5 acetate buffer (see Table 2). An excess amount of Compound A and the corresponding vehicle were mixed by rotary mixer at room temperature for 24 hours and subsequent filtration through 0.22 μm cellulose acetate membrane. Concentration of Compound A was measured by UPLC.

[3] = Concentration of Compound A in skin after application of gel (FIG. 3B); details: 50 μL gel, 0.35% w/v Compound A
Method: FIG. 3A is an image of skin to which a volume (50 μL) of a representative formulation of the invention that includes Compound A was applied. The applied formulation (gel) includes Compound A at a concentration of 0.35% w/v in a vehicle containing propylene glycol (20% w/w), Carbopol 940 (0.5% w/v), methyl paraben (0.2% w/w), propyl paraben (0.02% w/w) and acetate buffer pH 5 (QS). Triethylamine was used to adjust the final formulation pH to 5-6.
(§1) FIG. 3B compares concentration of Compound A (μg/μL) in the skin at 4, 6, and 24 hours after application of a volume (50 μL) of a representative formulation of the invention that includes Compound A as described above for FIG. 3A.
as §1, with “FIG. 3A is an image of skin to which a volume (50 μL) of a representative formulation of the invention that includes Compound A was applied. FIG. 3B” for “FIG. 3B”

[4] = Ex vivo pig ear skin permeation, Franz Diffusion Cell System; type: in vitro ADME; details: for Compound A in tape-stripped skin samples, Average: n=3; for Skin concentration (Compound A in tape-stripped skin, single replicates): listed as Compound A
Method: […] Formulations were delivered to the skin over a period of 6 hours and drug permeation was assessed by UPLC-MS/MS analysis of tape-stripped skin and receptor fluid. Receptor fluid samples were collected for analysis at 3 and 6 hour time points.
Compound A permeation through skin was assessed ex vivo by using pig ear skin and a Franz Diffusion Cell System (PermeGear®).
Fresh pig ears were obtained from female Yorkshire/Landrace crosses, between 3.5-5 months old, at Jack Bell Research Centre, Vancouver. Immediately after surgery, pig ears were removed and placed in a double Ziploc® bag and stored at −20° C. freezer until shipment to laboratory site on ice via courier the next day. Upon arrival at the site, pig ears were stored in a segregated container, labeled with harvest and shipment date, in −20° C. freezer and were used prior to their expiry date of 5 weeks. Pig skin was prepared according to “Preparation of Pig Skin Samples for ex vivo Permeation Assays.” Briefly, one day prior to the study, frozen ears were thawed washed with deionized water and blotted dry. After trimming off hair, surface skin was separated from cartilage and fat, and hole-punched into coin shape samples to fit dimensions of Franz cells. Pig ear samples were stored in a petri dish, sealed with parafilm tape, in double Ziploc® bags at −20° C. overnight prior to the study on the following day.
Set up of the diffusion cell system was performed according to “Setup, Operation and Cleaning Procedure for Franz Diffusion Cell System.” Prior to application of formulations, skin integrity of each skin sample was determined by measuring the electrical resistance. The electrical resistance was measured with a Model 878B Dual Display LCR Meter (BK Precision®) connected to two stainless steel electrodes, using a setting of 1 KHz. Measurements were taken at least 30 minutes after mounting skin samples to ensure temperature and humidity equilibration. The donor and receptor chamber were filled with 300 μL and 5 mL of pH 7.4 phosphate buffered saline (PBS), respectively, and both electrodes were immersed in solution without touching the skin membrane. Any skin membrane giving an electrical resistance below 4.0 kΩ was discarded and replaced.
Throughout the permeation assay, all cells were maintained at 32° C. and sink condition was maintained in the receptor fluid. Receptor chambers were filled with 4.75 mL of receptor fluid (pH 7.4 PBS) and were kept stirring for the entire duration of the experiment. Skin samples were mounted above the receptor chamber, in direct contact with the receptor fluid, and then donor chambers were mounted above the skin. Any air bubbles between the skin tissue and the receptor fluid were carefully removed prior to application of formulations. The appropriate formulation (300 μL) was added to the donor chamber and the opening of the cell was covered with Parafilm® to prevent evaporation of the test article. Three skin samples per formulation (N) were tested. Three components (receptor fluid, applied formulation and skin samples) were sampled for subsequent analysis. Receptor fluid was sampled at 3 and 6 hours (without volume replacement) and stored at −20° C. until analysis. At the end of the experiment, the applied formulation was recovered from the donor chamber and recorded as the unabsorbed dose. The skin was then blotted dry with a Kimwipe® and tape-stripped skin (12 tape strips) was obtained. The first tape strip (3M scotch tape) was used to remove excess of formulation remaining on the skin and was discarded. Then a total of 11 tape strips were used to partially remove the stratum corneum. These tape strips were kept in labeled glass vial. Then using a hole-puncher the section of skin exposed to the formulation was removed and the corresponding weight of the skin sample was recorded. All samples were stored at −20° C. until analysis. […]

CC[C@H](C)[C@H](NC(=O)CCC(=O)O)C(=O)NCC(=O)N1C(=O)N(C2CCCCC2)C[C@H]1C(=O)NCc1nn[nH]n1 [Compound 1A, 4-(((2S,3S)-1-((2-((S)-5-(((2H-tetrazol-5-yl)methyl)carbamoyl)-3-cyclohexyl-2-oxoimidazolidin-1-yl)-2-oxoethyl)amino)-3-methyl-1-oxopentan-2-yl)amino)-4-oxobutanoic acid]
In vivo performance of gel ([1]; 3.6 mg/mL gel, pH 6.0 with triethanolamine, compared with Compound 1 gel (triethylamine)): performance comparable to that of another representative formulation

CC[C@H](C)[C@H](NC(=O)CCC(=O)O)C(=O)NCC(=O)N1C(=O)N(C2CCCCC2)C[C@H]1C(=O)NCc1nn[nH]n1 [Compound C2, 4-(((2S,3S)-1-((2-((S)-5-(((2H-tetrazol-5-yl)methyl)carbamoyl)-3-cyclohexyl-2-oxoimidazolidin-1-yl)-2-oxoethyl)amino)-3-methyl-1-oxopentan-2-yl)amino)-4-oxobutanoic acid]
Compound A Concentration in Formulation ([2]; Water + 20% N-methyl-2-pyrollidone (NMP)): 1.13 mg/mL
Compound A Concentration in Formulation ([2]; pH5 acetate buffer + 10% Transcutol (TC)): 2.99 mg/mL
Compound A Concentration in Formulation ([2]; pH5 acetate buffer + 10% dimethylisosorbide (DMI)): 3.18 mg/mL
Compound A Concentration in Formulation ([2]; pH5 acetate buffer + 10% urea): 3.04 mg/mL
Compound A Concentration in Formulation ([2]; pH5 acetate buffer + 15% TWEEN 80): 1.56 mg/mL
Compound A Concentration in Formulation ([2]; pH5 acetate buffer + 20% propylene glycol (PG), room temperature 24 hours): 2.82 mg/mL
Stability and retention in skin (concentration at 4, 6 and 24 hours) [3]: stable and effectively retained in the skin
Compound A in tape-stripped skin samples, Average ([4]; Water + 20% N-methyl-2-pyrollidone (NMP), 6 hour exposure): 4846 ng/g
Skin concentration (Compound A in tape-stripped skin, single replicates) ([4]; Water + 20% NMP, 6 h exposure): 4313 ng/g and 4985 ng/g and 5241 ng/g
Skin concentration (Compound A in tape-stripped skin, single replicates) ([4]; pH5 acetate buffer + 10% DMI, 6 h exposure): 13975 ng/g and 6214 ng/g and 6311 ng/g
Compound A in tape-stripped skin samples, Average ([4]; pH5 acetate buffer + 10% Dimethyl Isosorbide (DMI), 6 hour exposure): 8833 ng/g
Skin concentration (Compound A in tape-stripped skin, single replicates) ([4]; pH5 acetate buffer + 10% TC, 6 h exposure): 5869 ng/g and 8886 ng/g and 1629 ng/g
Compound A in tape-stripped skin samples, Average ([4]; pH5 acetate buffer + 10% Transcutol (TC), 6 hour exposure): 5461 ng/g
Skin concentration (Compound A in tape-stripped skin, single replicates) ([4]; pH5 acetate buffer + 10% Urea, 6 h exposure): 5588 ng/g and 19422 ng/g and 2943 ng/g
Compound A in tape-stripped skin samples, Average ([4]; pH5 acetate buffer + 10% Urea, 6 hour exposure): 9317 ng/g
Skin concentration (Compound A in tape-stripped skin, single replicates) ([4]; pH5 acetate buffer + 15% Tw80, 6 h exposure): 4937 ng/g and 1968 ng/g and 4442 ng/g
Compound A in tape-stripped skin samples, Average ([4]; pH5 acetate buffer + 15% Tween 80, 6 hour exposure): 3782 ng/g
Skin concentration (Compound A in tape-stripped skin, single replicates) ([4]; pH5 acetate buffer + 20% PG, 6 h exposure): 4785 ng/g and 10012 ng/g and 6515 ng/g and 4784 ng/g
Compound A in tape-stripped skin samples, Average ([4]; pH5 acetate buffer + 20% Propylene Glycol (PG), 6 hour exposure): 7104 ng/g
Average skin concentrations ([4]; tape-stripped skin, 6 hours, span over the six formulations): 3700 to 9300 ng/g
Burn wound healing (percent of original wound size, falling of scabs) ([1]; subcutaneous injection, solution in PBS 0.56 mg/ml, vs saline, Day 0 to Day 30): attenuation of initial burn expansion in the zone of stasis and improved burn wound healing
Quality of healed wound (epidermal thickness, decorin level, collagen level) ([1]; topical gel): improves quality of healed wound
Burn wound healing (percent of original wound size, falling of scabs) ([1]; topical gel vs saline control): attenuation of initial burn expansion in the zone of stasis and improved burn wound healing
Burn wound healing (percent of original wound size) ([1]; topical gel vs vehicle control, repeated study, Day 0 to Day 24): attenuation of initial burn expansion in the zone of stasis and improved burn wound healing
